Assay results from US12421254B2, “KRAS modulators and uses thereof” (Quanta Therapeutics, Inc., priority 2023, dated 2025).

What was measured:
[1] = target: GST-tagged KRAS-G12D (2-169) (Homo sapiens, UniProt P01116, G12D); assay: Nucleotide exchange assay (NEA), SOS-mediated, HTRF, KRAS G12D; assay type: biochemical; settings: Table 4; IC50 extracted at 30 min; 20 nM SOScat; read-out: NEA G12D IC50
Method in brief: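 SOS1cat-driven loading of fluorescent GTP-DY-647P1 (150 nM) onto GST-KRAS-G12D (2-169, 0.25 nM) read by time-resolved FRET; SOScat 20 nM, compound preincubated with KRAS 1 h at RT. Signal blanked to no-SOS reactions, normalized to DMSO; IC50 fitted from the 30-min read.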

[2] = tested on: phospho-ERK in SW620 (KRAS-G12V) cells; assay: pERK In Cell Western (ICW) assay (Method B), SW620; assay type: cell-based
Method in brief: (§1)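 In-cell western read-out: phospho-ERK (800 nm) normalized to DRAQ5 (700 nm) per well, expressed as percent of blank control, IC50 from 4-parameter variable-slope fit. Compounds were applied as ½-log 9-point series for 3 h at 37 °C to cells plated the previous day.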

[3] = target: GST-tagged KRAS-G12V (2-169) (Homo sapiens, UniProt P01116, G12V); assay: Nucleotide exchange assay (NEA), SOS-mediated, HTRF, KRAS G12V; assay type: biochemical; settings: Table 4; IC50 extracted at 90 min; 80 nM SOS
Method in brief: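 Exchange onto fluorescent GTP-DY-647P1 (150 nM final) catalysed by 80 nM SOS1cat was followed by Tb-anti-GST HTRF at RT for up to 90 min, after 1 h compound pre-incubation with 0.25 nM GST-tagged KRAS-G12V (2-169), pH 7.3. DMSO = 0%, no-SOS blank = 100%; 4-parameter IC50 taken at 90 min.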

[4] = tested on: phospho-ERK in GP2D (KRAS-G12D) cells; assay: pERK In Cell Western (ICW) assay (Method B), GP2D; assay type: cell-based
Method in brief: as §1

[5] = Homo sapiens, SW-620, 3 h, Table 4

GST-tagged KRAS-G12D (2-169), sequence (P01116 2-169 isoform P01116-2 G12D): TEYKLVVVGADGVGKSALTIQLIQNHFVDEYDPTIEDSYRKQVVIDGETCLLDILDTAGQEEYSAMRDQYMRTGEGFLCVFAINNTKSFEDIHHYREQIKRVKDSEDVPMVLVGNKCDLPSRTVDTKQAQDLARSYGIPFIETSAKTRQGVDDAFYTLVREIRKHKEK
GST-tagged KRAS-G12V (2-169), sequence (P01116 2-169 isoform P01116-2 G12V): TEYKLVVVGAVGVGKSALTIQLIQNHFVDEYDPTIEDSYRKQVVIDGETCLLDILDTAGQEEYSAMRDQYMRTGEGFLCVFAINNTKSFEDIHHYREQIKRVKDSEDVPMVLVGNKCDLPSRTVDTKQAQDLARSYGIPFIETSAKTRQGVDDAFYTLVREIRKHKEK

SMILES | IC50 [1] [nM] | IC50 [2, 5] [nM] | IC50 [3] [nM] | IC50 ([4]; GP2d, 3 h, Table 4) [nM] | IC50 ([2]; Table 4, 3 hours) [nM] | IC50 ([4]; Table 4, 3 hours) [nM]
C[C@H](c1cccnc1N)N(CCF)c1nc(OC[C@@]23CCCN2C[C@H](F)C3)nc(N2CC3(C2)SCc2sc(N)c(C#N)c23)n1 [Compound 180, 2′-amino-1-(4-(((R)-1-(2-aminopyridin-3-yl)ethyl)(2-fluoroethyl)amino)-6-(((2R,7aS)-2-fluorotetrahydro-1H-pyrrolizin-7a(5H)-yl)methoxy)-1,3,5-triazin-2-yl)-6′H-spiro[azetidine-3,4′-thieno[3,4-b]thiophene]-3′-carbonitrile] | < 10 | < 10 | < 10 | < 10 |  | 
CC1(O)CC(F)CN(c2nc(OCC3(CN4CCOCC4)CC3)nc(N3CC4(CCc5sc(N)c(C#N)c54)C3)n2)C1 (stereo not shown) [Compound 93, 2′-amino-1-(4-(5-fluoro-3-hydroxy-3-methylpiperidin-1-yl)-6-((1-(morpholinomethyl)cyclopropyl)methoxy)-1,3,5-triazin-2-yl)-5′,6′-dihydrospiro[azetidine-3,4′-cyclopenta[b]thiophene]-3′-carbonitrile] | < 10 | 10 to 100 | < 10 | 10 to 100 |  | 
CC(c1cccnc1N)N(CCO)c1nc(OC[C@@]23CCCN2C[C@H](F)C3)nc(N2CC3(CCc4sc(N)c(C#N)c43)C2)n1 (single isomer, unassigned) [Compound 122B, 2-amino-1′-[4-[[(1*)-1-(2-amino-3-pyridyl)ethyl]-(2-hydroxyethyl)amino]-6-[[(2R,8S)-2-fluoro-1,2,3,5,6,7-hexahydropyrrolizin-8-yl]methoxy]-1,3,5-triazin-2-yl]spiro[5,6-dihydrocyclopenta[b]thiophene-4,3′-azetidine]-3-carbonitrile] | < 10 |  | < 10 |  | 10 to 100 | 10 to 100
N#Cc1c(N)sc2c1C1(CN(c3nc(OC[C@@]45CCCN4C[C@H](F)C5)nc(N(CC(N)=O)Cc4cccnc4N)n3)C1)SC2 [Compound 194, 2-[[4-(2-amino-3-cyano-spiro[6H-thieno[3,4-b]thiophene-4,3′-azetidine]-1′-yl)-6-[[(2R,8S)-2-fluoro-1,2,3,5,6,7-hexahydropyrrolizin-8-yl]methoxy]-1,3,5-triazin-2-yl]-[(2-amino-3-pyridyl)methyl]amino]acetamide] | < 10 | 1000 to 20000 | < 10 | 1000 to 20000 |  | 
C[C@H](c1cccnc1N)N(c1nc(OC[C@@]23CCCN2C[C@H](F)C3)nc(N2CC3(C2)SCc2sc(N)c(C#N)c23)n1)C1CC1 [Compound 264, 2-amino-1′-[4-[[(1R)-1-(2-amino-3-pyridyl)ethyl]-cyclopropyl-amino]-6-[[(2R,8S)-2-fluoro-1,2,3,5,6,7-hexahydropyrrolizin-8-yl]methoxy]-1,3,5-triazin-2-yl]spiro[6H-thieno[3,4-b]thiophene-4,3′-azetidine]-3-carbonitrile] | < 10 | < 10 | < 10 | 10 to 100 |  | 
CC(c1cncnc1N)N(C)c1nc(OC[C@@]23CCCN2C[C@H](F)C3)nc(N2CC3(CCc4sc(N)c(C#N)c43)C2)n1 (stereo partly drawn) [Compound 108, 2-amino-1′-[4-[1-(4-aminopyrimidin-5-yl)ethyl-methyl-amino]-6-[[(2R,8S)-2-fluoro-1,2,3,5,6,7-hexahydropyrrolizin-8-yl]methoxy]-1,3,5-triazin-2-yl]spiro[5,6-dihydrocyclopenta[b]thiophene-4,3′-azetidine]-3-carbonitrile] | < 10 | 10 to 100 | < 10 | 10 to 100 |  | 
N#Cc1c(N)sc2c1C1(CC2)CN(c2nc(OC[C@@]34CCCN3C[C@H](F)C4)nc(N3CCCC(O)(C(F)F)C3)n2)C1 (stereo partly drawn) [Compound 87, 2-amino-1′-[4-[3-(difluoromethyl)-3-hydroxy-1-piperidyl]-6-[[(2R,8S)-2-fluoro-1,2,3,5,6,7-hexahydropyrrolizin-8-yl]methoxy]-1,3,5-triazin-2-yl]spiro[5,6-dihydrocyclopenta[b]thiophene-4,3′-azetidine]-3-carbonitrile] | 10 to 100 | 1000 to 20000 | 10 to 100 | 100 to 1000 |  | 
